Source: patent US20240425478A1, “CYCLOPENTYLPYRAZOLE CDK2 INHIBITORS” (Genentech, Inc., priority 2021, published 2024)
Several values for one entry are separate records, joined by “and”; a condition that tells them apart may be missing. Equal entries are not always repeated. Where two headings read alike, the source gives them in different places.

Key:
[1] = biological target: T1, Cyclin Dependent Kinase 1/Cyclin A2 (CDK1-cycA2) (Homo sapiens, UniProt P06493); experiment: CDK1-cycA2 TR-FRET (Lance) enzyme assay; type: biochemical; settings: for Ki: Table O, enzymatic assay; for FS CDK1/CDK2: fold selectivity, enzymatic Ki ratio
T1 construct: purchased ProQinase 0134-0054-1
Outline: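 Human CDK1/cyclin A2 pre-incubated 30 min with compound dose responses in 50 mM HEPES pH 7.5, 10 mM MgCl2, 2 mM TCEP, 0.05% BGG, 0.01% Brij 35. Reaction quenched with EDTA (15 mM final); TR-FRET readout using Eu-anti-phospho-4E-BP1, acceptor/donor ratio. Inhibition constants from Morrison equation.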

[2] = biological target: T2, Cyclin Dependent Kinase 2/Cyclin E1 (CDK2-cycE1) (Homo sapiens, UniProt P24941); experiment: CDK2-cycE1 TR-FRET (LANCE) enzyme assay; type: biochemical; settings: for FS CDK1/CDK2 / FS CDK4/CDK2: fold selectivity; for FS CDK1/CDK2: enzymatic CDK1 Ki over CDK2 Ki; for FS CDK4/CDK2: enzymatic CDK4 Ki over CDK2 Ki
T2 construct: purchased ProQinase 0050-0055-1
Outline: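 Compound dose responses pre-incubated 30 min with CDK2-cycE1 in 50 mM HEPES pH 7.5, 10 mM MgCl2, 2 mM TCEP, 0.05% BGG, 0.01% Brij 35. Reaction quenched with EDTA (15 mM final), phospho-MBP detected by Eu-anti-phospho-MBP TR-FRET (acceptor/donor ratio). Inhibition constants from Morrison equation.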

[3] = biological target: T3, Cyclin Dependent Kinase 4/Cyclin D3 (CDK4-cycD3) (Homo sapiens, UniProt P11802); experiment: CDK4-cycD3 TR-FRET (LANCE) enzyme assay; type: biochemical; settings: for Ki: Table O, enzymatic assay
T3 construct: purchased Carna Biosciences 04-105
Outline: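 Compound dose responses pre-incubated 30 min with enzyme mix in 50 mM HEPES pH 7.5, 10 mM MgCl2, 2 mM TCEP, 0.05% BGG, 0.01% Brij 35. Reaction quenched with EDTA (15 mM final); Eu-anti-phospho-4E-BP1 TR-FRET detection, acceptor/donor ratio. Ki derived by Morrison equation.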

[4] = tested on: OVISE (JCRB1043, CCNE1-amplified); experiment: OVISE EdU incorporation cell proliferation assay (CDK2-dependent); type: cell-based; settings: for IC50 / FS SKOV-3/OVISE / FS p-H3/OVISE: Table O; for IC50: cellular assay, read-out: CDK2 OVISE IC50; for FS SKOV-3/OVISE / FS p-H3/OVISE: fold selectivity; for FS SKOV-3/OVISE: cellular SKOV-3 IC50 over OVISE IC50; for FS p-H3/OVISE: cellular p-H3 IC50 over OVISE IC50
Outline: (§1)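 Cells in RPMI/10% FBS dosed with compound (0.5% DMSO final) for 16 h at 37 °C, 5% CO2, then EdU 0.5 μM final for 8 h before fixation and imaging. IC50 from 4-parameter logistic fit of EdU-positive cell fraction versus dose.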

SKOV-3 (ATCC HTB-77) = experiment: SKOV-3 EdU incorporation cell proliferation assay (CDK4/6-dependent); type: cell-based; settings: for IC50: Homo sapiens, SK-OV-3, Table O, cellular assay, read-out: CDK4/6 SKOV-3 IC50; for FS SKOV-3/OVISE: fold selectivity
Outline: as §1

HCT116 cells = experiment: p-H3 HCT-116 mitotic release cell proliferation assay (cellular CDK1); type: cell-based; settings: for IC50: Homo sapiens, HCT-116, Table O, cellular assay, read-out: CDK1 p-H3 IC50
Outline: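 HCT116 cells arrested 16 h with 500 nM nocodazole, then exposed to compound for 4 h at 37 °C (0.1% DMSO). Lysates read by HTRF/FRET with donor and acceptor phospho-Histone H3 (Ser10) antibodies, ≥2 h at room temperature; CDK1 inhibition seen as loss of p-H3 on mitotic release.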

[5] = Table O, enzymatic assay, read-out: CDK2 Ki
[6] = read-out: CDK2 activity / potency (enzymatic assay)
[7] = SKOV-3/OVISE fold-selectivity cellular assay data

T3 sequence (P11802 whole entry): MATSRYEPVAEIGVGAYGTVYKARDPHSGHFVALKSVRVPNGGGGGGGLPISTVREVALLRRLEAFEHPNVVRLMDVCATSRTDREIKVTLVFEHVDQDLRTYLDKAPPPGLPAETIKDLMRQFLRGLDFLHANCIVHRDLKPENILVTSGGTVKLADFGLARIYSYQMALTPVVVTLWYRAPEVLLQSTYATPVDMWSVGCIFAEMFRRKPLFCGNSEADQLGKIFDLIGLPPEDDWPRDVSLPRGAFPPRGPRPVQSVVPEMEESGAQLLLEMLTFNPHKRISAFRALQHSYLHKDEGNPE
T3 sequence (P30281 whole entry partner): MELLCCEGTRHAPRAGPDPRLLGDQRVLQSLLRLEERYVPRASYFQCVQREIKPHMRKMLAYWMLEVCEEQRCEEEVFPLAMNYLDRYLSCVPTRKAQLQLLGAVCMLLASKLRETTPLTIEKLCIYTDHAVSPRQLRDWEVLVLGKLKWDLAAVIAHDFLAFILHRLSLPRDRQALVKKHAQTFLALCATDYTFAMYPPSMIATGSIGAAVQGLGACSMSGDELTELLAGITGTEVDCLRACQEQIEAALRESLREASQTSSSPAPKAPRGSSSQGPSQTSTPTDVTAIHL
T1 sequence (P06493 whole entry): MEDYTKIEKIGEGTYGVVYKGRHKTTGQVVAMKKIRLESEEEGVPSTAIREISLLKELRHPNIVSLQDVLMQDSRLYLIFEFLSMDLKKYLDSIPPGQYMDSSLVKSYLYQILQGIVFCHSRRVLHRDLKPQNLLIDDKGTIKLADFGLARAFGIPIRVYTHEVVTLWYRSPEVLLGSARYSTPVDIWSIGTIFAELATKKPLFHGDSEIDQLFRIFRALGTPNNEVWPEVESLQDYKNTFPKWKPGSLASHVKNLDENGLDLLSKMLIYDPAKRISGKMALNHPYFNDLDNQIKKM
T1 sequence (P20248 whole entry partner): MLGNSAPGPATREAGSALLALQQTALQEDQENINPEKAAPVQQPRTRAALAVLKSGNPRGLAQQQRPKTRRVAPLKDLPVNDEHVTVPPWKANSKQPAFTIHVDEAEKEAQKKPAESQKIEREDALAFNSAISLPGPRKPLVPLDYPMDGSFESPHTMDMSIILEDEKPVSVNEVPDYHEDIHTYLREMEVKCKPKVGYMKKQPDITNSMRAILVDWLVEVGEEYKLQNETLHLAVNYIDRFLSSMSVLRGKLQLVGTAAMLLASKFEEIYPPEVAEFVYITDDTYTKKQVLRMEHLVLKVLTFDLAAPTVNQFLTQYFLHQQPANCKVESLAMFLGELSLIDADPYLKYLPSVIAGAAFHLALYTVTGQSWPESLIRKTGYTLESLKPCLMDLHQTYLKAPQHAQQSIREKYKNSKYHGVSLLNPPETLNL

O=C(NC12CC(C1)C2)O[C@@H]1CC[C@H](c2cc(Nc3ccc(CO)nc3)n[nH]2)C1 [Example 9I, (1R,3S)-3-(3-((6-(hydroxymethyl)pyridin-3-yl)amino)-1H-pyrazol-5-yl)cyclopentyl bicyclo[1.1.1]pentan-1-ylcarbamate]
Ki [1]: 8.9 nM | Ki [2, 5]: 0.38 nM | FS CDK1/CDK2 ([2]; Table O): 23 | FS CDK4/CDK2 ([2]; Table O): 97 | Ki [3]: 37 nM | IC50 [4]: 30 nM | FS SKOV-3/OVISE [4]: 12 | FS p-H3/OVISE [4]: 0.23 | IC50 (SKOV-3 (ATCC HTB-77)): 360 nM | IC50 (HCT116 cells): 6.9 nM

CC(C)(C)NC(=O)O[C@@H]1CC[C@H](c2cc(Nc3ccnnc3)n[nH]2)C1 [Example 4K, (1R,3S)-3-(3-(pyridazin-4-ylamino)-1H-pyrazol-5-yl)cyclopentyl tert-butylcarbamate]
Ki [1]: 27 nM | FS CDK1/CDK2 increased over Comparator D, (+) sign ([1]; Table R): (+) | FS CDK1/CDK2 ([1]; Table R): 54 | FS CDK1/CDK2 ([1]; Table S): 54 | FS CDK1/CDK2 ([1]; Table P): 54 | Ki [2, 5]: 0.45 nM | FS CDK1/CDK2 ([2]; Table O): 54 | FS CDK4/CDK2 ([2]; Table O): 104 | Ki ([2]; Table R, enzymatic assay, read-out: CDK2 Ki): 0.45 nM | CDK2 Ki fold change in potency versus Comparator D ([2]; Table R, in brackets after CDK2 Ki): 6 fold | Ki ([2]; Table S, enzymatic assay, read-out: CDK2 Ki): 0.45 nM | CDK2 Ki fold change in potency versus Comparator E ([2]; Table S, in brackets after CDK2 Ki): 1.2 fold | Ki ([2]; enzymatic assay, Table P, read-out: CDK2 Ki): 0.45 nM | CDK2 Ki fold potency relative to Comparator A ([2]; first bracket in CDK2 Ki cell, Table P): 0.4 fold | Ki [2, 6]: ≤ 1 nM and 0.45 nM | CDK2 Ki fold potency relative to Comparator B ([2]; second bracket in CDK2 Ki cell, Table P): 2 fold | Ki [3]: 52 nM | FS CDK4/CDK2 increased over Comparator D, (+) sign ([3]; Table R): (+) | FS CDK4/CDK2 increased over Comparator E, (+) sign ([3]; Table S): (+) | CDK2 cell potency compared with Comparator E ([4]; CDK2 OVISE cellular assay data): more potent CDK2 cell inhibitors compared to Comparator E | IC50 [4]: 78 nM | FS SKOV-3/OVISE [4]: 71 | FS p-H3/OVISE [4]: 2.1 | CDK2 OVISE IC50 fold change in potency versus Comparator D ([4]; Table R, in brackets after OVISE IC50): 49 fold | CDK2 OVISE IC50 fold change in potency versus Comparator E ([4]; Table S, in brackets after OVISE IC50): 2.2 fold | CDK2 OVISE IC50 fold potency relative to Comparator A ([4]; first bracket in OVISE IC50 cell, Table P): 0.5 fold | CDK2 OVISE IC50 fold potency relative to Comparator B ([4]; second bracket in OVISE IC50 cell, Table P): 1.8 fold | IC50 (SKOV-3 (ATCC HTB-77)): 5500 nM | CDK2 selectivity over CDK4/6 compared with Comparators A and B (SKOV-3 (ATCC HTB-77); [7]): at least three times more CDK2 selective over CDK4/6 | selectivity for CDK2 over CDK4 compared with Comparator E (SKOV-3 (ATCC HTB-77); [7]): increase in selectivity for CDK2 over CDK4 | FS SKOV-3/OVISE increased over Comparator D, (+) sign (SKOV-3 (ATCC HTB-77); Table R): (+) | FS SKOV-3/OVISE (SKOV-3 (ATCC HTB-77); Table R, cellular IC50 ratio): 71 | FS SKOV-3/OVISE increased over Comparator E, (+) sign (SKOV-3 (ATCC HTB-77); Table S): (+) | FS SKOV-3/OVISE (SKOV-3 (ATCC HTB-77); Table S, cellular IC50 ratio): 71 | FS SKOV-3/OVISE compared with Comparator A (SKOV-3 (ATCC HTB-77); first sign in cell, Table P): (+) | FS SKOV-3/OVISE (SKOV-3 (ATCC HTB-77); cellular IC50 ratio (CDK4/6 over CDK2), Table P): 71 | FS SKOV-3/OVISE compared with Comparator B (SKOV-3 (ATCC HTB-77); second sign in cell, Table P): (+) | pH3/OVISE fold selectivity (CDK1 over CDK2, cellular assay data) (HCT116 cells): 2.1 fold | IC50 (HCT116 cells): 160 nM | FS p-H3/OVISE compared with Comparator A (HCT116 cells; first sign in cell, Table P): (+) | FS p-H3/OVISE (HCT116 cells; fold selectivity, cellular IC50 ratio (CDK1 over CDK2), Table P): 2.1 | FS p-H3/OVISE compared with Comparator B (HCT116 cells; second sign in cell, Table P): (+)

Cn1nc(Nc2cc([C@H]3CC[C@@H](OC(=O)NC45CC(C4)C5)C3)[nH]n2)ccc1=O [Example 6, (1R,3S)-3-(5-((1-methyl-6-oxo-1,6-dihydropyridazin-3-yl)amino)-1H-pyrazol-3-yl)cyclopentyl bicyclo[1.1.1]pentan-1-ylcarbamate]
Ki [1]: 21 nM | Ki [2, 5]: < 0.1 nM | FS CDK1/CDK2 ([2]; Table O): >33 | FS CDK4/CDK2 ([2]; Table O): >320 | Ki [2, 6]: ≤ 1 nM | Ki [3]: 20 nM | IC50 [4]: 16 nM | FS SKOV-3/OVISE [4]: 81 | FS p-H3/OVISE [4]: 1.4 | IC50 (SKOV-3 (ATCC HTB-77)): 1300 nM | IC50 (HCT116 cells): 23 nM
